In ChEMBL document CHEMBL2331399, “Purification and characterization of carbonic anhydrase from sheep kidney and effects of sulfonamides on enzyme activity” (Bioorg Med Chem, 2013):
pKi: −log10 of the molar value.

Assay: Inhibition of sheep kidney esterase activity of carbonic anhydrase using 4-nitrophenylacetate as substrate after 3 mins by spectrophotometric analysis
Set-up: species or system Ovis aries

pKi	Structure (SMILES)
5.59	NS(=O)(=O)c1ccc2ccccc2c1
5.23	NS(=O)(=O)c1ccccc1Br
5.06	NS(=O)(=O)c1ccccc1 [BENZENESULFONAMIDE]
5.87	Cc1ccc(S(N)(=O)=O)cc1 [P-TOLUENESULFONAMIDE]
4.16	Nc1ccc(S(N)(=O)=O)cc1 [SULFANILAMIDE]
